Laboratory results: US20240246918A1, “COMPOUNDS AND COMPOSITIONS AS EIF4E INHIBITORS AND THE USES THEREOF” (Ribometrix, Inc., priority 2022, published 2024)

Columns and labels:
[1] = molecular target: T1, human eIF4E protein (Homo sapiens, UniProt P06730); assay: Biochemical competitive binding assay (TR-FRET competition, EDA-m7GDP-ATTO-647N probe); settings: read-out: hEIF4E TR-FRET IC50
T1 construct: purchased Novus NBP-45314
How it was run: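 IC50 values come from 4-parameter fits of the normalized 665/620 nm TR-FRET ratio. Compound was first incubated 15 min with 4 nM recombinant His-eIF4E bound to 2.5 nM Eu-anti-His antibody, then 15 min with 5 nM m7GDP-ATTO-647N tracer, in pH 7.5 HEPES buffer with 100 mM KCl, Tween-20 and BSA.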

[2] = test system: COLO 205 colorectal tumor cells; assay: Tumor cell viability inhibition assay (CellTiter-Glo 2.0, 72 hours); type: cell-based; settings: COLO 205 cell viability
How it was run: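 IC50 derived by 4-parameter fitting after normalizing luminescence to DMSO and max-inhibition wells. Compounds tested as 11 concentrations in 4-fold steps on COLO 205 cells seeded at 1500 per well in RPMI-1640/10% FBS; ATP content measured with CellTiter-Glo 2.0 after 72 h.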

T1 sequence (P06730 whole entry): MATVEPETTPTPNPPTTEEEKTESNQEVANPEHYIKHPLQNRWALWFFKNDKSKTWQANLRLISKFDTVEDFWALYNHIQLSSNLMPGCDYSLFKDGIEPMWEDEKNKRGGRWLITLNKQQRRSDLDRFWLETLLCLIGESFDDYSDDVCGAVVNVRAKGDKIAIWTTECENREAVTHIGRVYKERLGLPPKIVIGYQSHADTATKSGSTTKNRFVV

IC50 [1]	IC50 [2]	IC50 ([2]; Homo sapiens, COLO 205, 72 h)	SMILES
< 0.1 µM		< 5 µM	Cc1cc(-c2cc(Cl)ccc2OCCn2c(C)nc3c(c2=O)CC(N2CCC4(CCN(CC(F)(F)F)C4)C2)CC3)c2scc(C(=O)O)c2n1 (single isomer, unassigned) [Compound 505]
< 0.1 µM	< 5 µM		Cc1cc(-c2cc(Cl)ccc2OCCn2c(C)nc3c(c2=O)CC(N2CCC4(CCN(CC(F)(F)F)C4)C2)CC3)c2scc(C(=O)O)c2n1 (single isomer, unassigned) [Compound 506]
< 0.1 µM		< 5 µM	Cc1cc(-c2cc(Cl)ccc2OCCn2c(C)nc3c(c2=O)CC(N2CC4(CCCN(CC(F)(F)F)C4)C2)CC3)c2scc(C(=O)O)c2n1 (single isomer, unassigned) [Compound 507]
< 0.1 µM	< 5 µM		Cc1cc(-c2cc(Cl)ccc2OCCn2c(C)nc3c(c2=O)CC(N2CC4(CCCN(CC(F)(F)F)C4)C2)CC3)c2scc(C(=O)O)c2n1 (single isomer, unassigned) [Compound 508]
< 0.1 µM		> 20 µM	Cc1cc(-c2cc(Cl)ccc2OCCn2c(C)nc3c(c2=O)CC(N2CC4(CCCNC4)C2)CC3)c2scc(C(=O)O)c2n1 (single isomer, unassigned) [Compound 509]
< 0.1 µM	> 20 µM		Cc1cc(-c2cc(Cl)ccc2OCCn2c(C)nc3c(c2=O)CC(N2CC4(CCCNC4)C2)CC3)c2scc(C(=O)O)c2n1 (single isomer, unassigned) [Compound 510]
< 0.1 µM	< 5 µM		Cc1cc(-c2cc(Cl)ccc2OCCn2c(C)nc3c(c2=O)CC(N2CCC4(CN(CC(F)(F)F)CC(F)(F)C4)C2)CC3)c2scc(C(=O)O)c2n1 (single isomer, unassigned) [Compound 512]
< 0.1 µM		< 5 µM	Cc1cc(-c2cc(Cl)ccc2OCCn2c(C)nc3c(c2=O)CC(N2CCC4(CC2)CN(CC(F)(F)F)CCO4)CC3)c2scc(C(=O)O)c2n1 (single isomer, unassigned) [Compound 517]
< 0.1 µM	< 5 µM		Cc1cc(-c2cc(Cl)ccc2OCCn2c(C)nc3c(c2=O)CC(N2CCC4(CC2)CN(CC(F)(F)F)CCO4)CC3)c2scc(C(=O)O)c2n1 (single isomer, unassigned) [Compound 518]
< 0.1 µM		> 20 µM	CO[C@@H]1CCN([C@@H]2CCc3nc(C)n(CCOc4ccc(Cl)cc4-c4cc(C)nc5c(C(=O)O)csc45)c(=O)c3C2)CC12CC2 (single isomer, unassigned) [Compound 519]
< 0.1 µM		< 5 µM	CO[C@H]1CCN([C@@H]2CCc3nc(C)n(CCOc4ccc(Cl)cc4-c4cc(C)nc5c(C(=O)O)csc45)c(=O)c3C2)CC12CC2 (single isomer, unassigned) [Compound 520]
< 0.1 µM		5 to 20 µM	CO[C@@H]1CCN([C@H]2CCc3nc(C)n(CCOc4ccc(Cl)cc4-c4cc(C)nc5c(C(=O)O)csc45)c(=O)c3C2)CC12CC2 (single isomer, unassigned) [Compound 521]
< 0.1 µM		< 5 µM	CO[C@H]1CCN([C@H]2CCc3nc(C)n(CCOc4ccc(Cl)cc4-c4cc(C)nc5c(C(=O)O)csc45)c(=O)c3C2)CC12CC2 (single isomer, unassigned) [Compound 522]
< 0.1 µM		< 5 µM	Cc1cc(-c2cc(Cl)ccc2OCCn2c(C)nc3c(c2=O)C[C@H](N2CCO[C@@H](CC(F)(F)F)C2)CC3)c2scc(C(=O)O)c2n1 (single isomer, unassigned) [Compound 523]
< 0.1 µM		< 5 µM	Cc1cc(-c2cc(Cl)ccc2OCCn2c(C)nc3c(c2=O)C[C@@H](N2CCO[C@@H](CC(F)(F)F)C2)CC3)c2scc(C(=O)O)c2n1 (single isomer, unassigned) [Compound 524]
< 0.1 µM		< 5 µM	Cc1cc(-c2cc(Cl)ccc2OCCn2c(C)nc3c(c2=O)C[C@H](N2CCO[C@H](CC(F)(F)F)C2)CC3)c2scc(C(=O)O)c2n1 (single isomer, unassigned) [Compound 525]
< 0.1 µM		< 5 µM	Cc1cc(-c2cc(Cl)ccc2OCCn2c(C)nc3c(c2=O)C[C@@H](N2CCO[C@H](CC(F)(F)F)C2)CC3)c2scc(C(=O)O)c2n1 (single isomer, unassigned) [Compound 526]
< 0.1 µM		> 20 µM	Cc1cc(-c2cc(Cl)ccc2OCCn2c(C)nc3c(c2=O)CC(N2CCC4(CC2)CNCCO4)CC3)c2scc(C(=O)O)c2n1 (single isomer, unassigned) [Compound 527]
< 0.1 µM	> 20 µM		Cc1cc(-c2cc(Cl)ccc2OCCn2c(C)nc3c(c2=O)CC(N2CCC4(CC2)CNCCO4)CC3)c2scc(C(=O)O)c2n1 (single isomer, unassigned) [Compound 528]

Second part, the molecule before the results:

SMILES	IC50 [1]	IC50 [2]	IC50 ([2]; Homo sapiens, COLO 205, 72 h)
COC1CCN(C2CCc3nc(C)n(CC#Cc4ccc(Cl)cc4-c4ccnc5c(C(=O)NS(C)(=O)=O)csc45)c(=O)c3C2)CC1 (single isomer, unassigned) [Compound 491]	< 0.1 µM	< 5 µM	
Cc1cc(-c2cc(Cl)ccc2OCCn2c(C)nc3c(c2=O)CC(N2CCC(CC(F)(F)F)CC2)CC3(C)C)c2scc(C(=O)O)c2n1 (single isomer, unassigned) [Compound 492]	< 0.1 µM		< 5 µM
Cc1cc(-c2cc(Cl)ccc2OCCn2c(C)nc3c(c2=O)C[C@@H](N(C)C24CC5CC(CC(C5)C2)C4)CC3)c2scc(C(=O)O)c2n1 (single isomer, unassigned) [Compound 493]	< 0.1 µM		< 5 µM
Cc1cc(-c2cc(Cl)ccc2OCCn2c(C)nc3c(c2=O)C[C@H](N2CC4CCC(C2)C4OC(F)(F)F)CC3)c2scc(C(=O)O)c2n1 (single isomer, unassigned) [Compound 494]	< 0.1 µM		< 5 µM
Cc1cc(-c2cc(Cl)ccc2OCCn2c(C)nc3c(c2=O)C[C@@H](N2CC4CCC(C2)C4OC(F)(F)F)CC3)c2scc(C(=O)O)c2n1 (single isomer, unassigned) [Compound 495]	< 0.1 µM		< 5 µM
COC1CCN(C2(C)CCc3nc(C)n(CCOc4ccc(Cl)cc4-c4cc(C)nc5c(C(=O)O)csc45)c(=O)c3C2)CC1 (single isomer, unassigned) [Compound 496]	< 0.1 µM	< 5 µM	
COC1CCN(C2(C)CCc3nc(C)n(CCOc4ccc(Cl)cc4-c4cc(C)nc5c(C(=O)O)csc45)c(=O)c3C2)CC1 (single isomer, unassigned) [Compound 497]	0.1 to 0.5 µM	> 20 µM	
Cc1cc(-c2cc(Cl)ccc2OCCn2c(C)nc3c(c2=O)C[C@@H](N2C[C@@H]4CC[C@H]2CC4OC(F)(F)F)CC3)c2scc(C(=O)O)c2n1 (single isomer, unassigned) [Compound 498]	< 0.1 µM		< 5 µM
Cc1cc(-c2cc(Cl)ccc2OCCn2c(C)nc3c(c2=O)C[C@H](N2C[C@H]4CC[C@@H]2CC4OC(F)(F)F)CC3)c2scc(C(=O)O)c2n1 (single isomer, unassigned) [Compound 499]	< 0.1 µM		< 5 µM
Cc1cc(-c2cc(Cl)ccc2OCCn2c(C)nc3c(c2=O)CC(N2CCC(CC(F)(F)F)CC2)CC3(C)C)c2scc(C(=O)O)c2n1 (single isomer, unassigned) [Compound 500]	< 0.1 µM	< 5 µM	
Cc1cc(-c2cc(Cl)ccc2OCCn2c(C)nc3c(c2=O)C[C@H](N2C[C@@H]4CC[C@H]2CC4OC(F)(F)F)CC3)c2scc(C(=O)O)c2n1 (single isomer, unassigned) [Compound 501]	< 0.1 µM		< 5 µM
Cc1cc(-c2cc(Cl)ccc2OCCn2c(C)nc3c(c2=O)C[C@@H](N2C[C@H]4CC[C@@H]2CC4OC(F)(F)F)CC3)c2scc(C(=O)O)c2n1 (single isomer, unassigned) [Compound 502]	< 0.1 µM		< 5 µM
COC1(C(F)(F)F)CC2CCC(C1)N2[C@H]1CCc2nc(C)n(CCOc3ccc(Cl)cc3-c3cc(C)nc4c(C(=O)O)csc34)c(=O)c2C1 (single isomer, unassigned) [Compound 503]	0.1 to 0.5 µM		5 to 20 µM
COC1(C(F)(F)F)CC2CCC(C1)N2[C@@H]1CCc2nc(C)n(CCOc3ccc(Cl)cc3-c3cc(C)nc4c(C(=O)O)csc34)c(=O)c2C1 (single isomer, unassigned) [Compound 504]	< 0.1 µM		< 5 µM
Cc1cc(-c2cc(Cl)ccc2OCCn2c(C)nc3c(c2=O)CC(N2CCC4(CN(CC(F)(F)F)CC(F)(F)C4)C2)CC3)c2scc(C(=O)O)c2n1 (single isomer, unassigned) [Compound 511]	< 0.1 µM		< 5 µM
Cc1cc(-c2cc(Cl)ccc2OCCn2c(C)nc3c(c2=O)C[C@H](N2CCC[C@@]4(CN(CC(F)(F)F)CC4(F)F)C2)CC3)c2scc(C(=O)O)c2n1 (single isomer, unassigned) [Compound 513]	< 0.1 µM		< 5 µM
Cc1cc(-c2cc(Cl)ccc2OCCn2c(C)nc3c(c2=O)C[C@@H](N2CCC[C@@]4(CN(CC(F)(F)F)CC4(F)F)C2)CC3)c2scc(C(=O)O)c2n1 (single isomer, unassigned) [Compound 514]	0.5 to 5 µM		> 20 µM
Cc1cc(-c2cc(Cl)ccc2OCCn2c(C)nc3c(c2=O)CC(C)(N2CCC(OC(F)(F)F)CC2)CC3)c2scc(C(=O)O)c2n1 (single isomer, unassigned) [Compound 515]	< 0.1 µM		< 5 µM
Cc1cc(-c2cc(Cl)ccc2OCCn2c(C)nc3c(c2=O)CC(C)(N2CCC(OC(F)(F)F)CC2)CC3)c2scc(C(=O)O)c2n1 (single isomer, unassigned) [Compound 516]	< 0.1 µM	< 5 µM	
